{
  "source": "patent US20040072211A1",
  "about": "“Methods for identifying ligands using waterlogsy NMR” (PHARMACIA & UPJOHN COMPANY, priority 2002, published 2004)",
  "key": {"[1]": {"target": "T1, Human Serum Albumin (HSA) (Homo sapiens, UniProt P02768)", "T1 sequence (P02768 25-609)": "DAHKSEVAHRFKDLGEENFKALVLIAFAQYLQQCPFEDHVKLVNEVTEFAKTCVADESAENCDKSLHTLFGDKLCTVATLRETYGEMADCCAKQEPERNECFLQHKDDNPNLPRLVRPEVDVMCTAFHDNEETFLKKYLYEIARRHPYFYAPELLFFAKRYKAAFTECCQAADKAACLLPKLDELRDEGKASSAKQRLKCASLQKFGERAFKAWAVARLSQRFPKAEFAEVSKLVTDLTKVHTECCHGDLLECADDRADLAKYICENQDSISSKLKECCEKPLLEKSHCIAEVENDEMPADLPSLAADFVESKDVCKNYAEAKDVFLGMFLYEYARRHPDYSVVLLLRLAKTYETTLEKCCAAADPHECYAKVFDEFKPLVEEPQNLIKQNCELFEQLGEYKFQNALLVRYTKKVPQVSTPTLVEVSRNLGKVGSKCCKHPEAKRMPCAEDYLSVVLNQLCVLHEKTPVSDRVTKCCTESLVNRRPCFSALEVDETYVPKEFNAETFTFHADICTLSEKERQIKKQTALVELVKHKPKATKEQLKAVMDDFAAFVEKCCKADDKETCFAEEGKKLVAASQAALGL", "experiment": "c-WaterLOGSY competition binding experiment, displacement of reference compound 6-CH3 Trp from HSA", "design": "purchased Sigma A-3782", "method": "(§1) NMR Experiments. […] For each sample a reference spectrum and a ID WaterLOGSY spectrum were recorded. […] The 1st water selective 180° pulse was 25 milliseconds (ms) long. A weak rectangular PFG is applied during the entire length of the mixing time (1.5 seconds (s)). A short gradient recovery time of 2 ms was introduced at the end of the mixing time before the detection pulse. […] The gradient recovery time was 0.2 s. […] Prior to Fourier transformation the data were multiplied with an exponential function with a line broadening of 1 Hz."}, "[2]": {"target": "T1, Human Serum Albumin (HSA)", "experiment": "biochemical", "conditions": "for Interaction with HSA by ITC binding heat effects: 30 μM protein, 1.5 mM ligand", "method": "FIG. 3. Isothermal titration calorimetry (ITC) data measured on the binding of tryptophan analogues to HSA. […] Dilution heats were collected in blank titrations and were subtracted from the data. […] The solid line represents a calculated curve using the best-fit parameters obtained by a nonlinear least-squares fit to the measured data.\nITC Experiments. […] Heats of dilution were measured in blank titrations by injecting the […] into the buffer used in the particular experiment and were subtracted from the binding heats. Thermodynamic parameters were determined by non-linear least squares methods using routines included in the Origin software package (MicroCal)."}, "[3]": {"target": "T1, Human Serum Albumin (HSA)", "experiment": "One-dimensional WaterLOGSY NMR spectra of methyl-tryptophan derivatives with HSA", "format": "binding", "design": "purchased Sigma A-3782", "conditions": "50 μM compound, 5 μM HSA, PBS pH 7.4, 293 K", "method": "FIG. 2. […] Positive and negative signals identify HSA binding and noninteracting molecules, respectively.\nDiazepam was purchased from Carlo Erba. The NMR samples were in phosphate buffered saline (PBS) buffer (Sigma) pH 7.4. D2O was added to the solutions (8% final concentration) for the lock signal.\nas §1\nTherefore in an effort to identify a potential reference molecule, three methyl-tryptophan derivatives, namely 5-CH3, 6-CH3, and 7-CH3 Trp, were selected."}, "[4]": {"target": "Human Serum Albumin (HSA) site II (Homo sapiens, UniProt P02768)", "sequence (P02768 25-609)": "as above", "conditions": "literature knowledge; cited from earlier work"}},
  "note": "pKd: −log10 of the molar value. Read-outs that look alike come from different tables or passages of the source.",
  "data": [
    {"smiles": "OC[C@H]1O[C@@](CO)(O[C@H]2O[C@H](CO)[C@@H](O)[C@H](O)[C@H]2O)[C@@H](O)[C@@H]1O", "note": "[Sucrose]", "values": [
      {"measurement": "Signal intensity change of the 6-CH3 Trp reference WaterLOGSY signal in presence of the competitor", "setting": "[1]", "result": "No signal intensity change"}
    ]},
    {"smiles": "Cc1cccc2c(CC(N)C(=O)O)c[nH]c12", "note": "(racemic) [7-CH3 Trp, 7-CH3-D,L-Trp]", "values": [
      {"measurement": "Interaction with HSA by ITC binding heat effects", "setting": "[2]; PBS, 298 K", "result": "No net binding heat effects"},
      {"measurement": "Signal intensity change of the 6-CH3 Trp reference WaterLOGSY signal in presence of the competitor", "setting": "[1]; 10 μM competitor, 50 μM 6-CH3 D,L Trp, 5 μM HSA", "result": "No signal intensity change"},
      {"measurement": "Interaction with HSA by sign of WaterLOGSY signal (positive = binding, negative = noninteracting)", "setting": "[3]", "result": "do not interact with the protein"}
    ]},
    {"smiles": "Cc1ccc2[nH]cc(CC(N)C(=O)O)c2c1", "note": "(racemic) [5-CH3 Trp, 5-CH3-D,L-Trp]", "values": [
      {"measurement": "Interaction with HSA by ITC binding heat effects", "setting": "[2]; PBS, 298 K", "result": "No net binding heat effects"},
      {"measurement": "Interaction with HSA by sign of WaterLOGSY signal (positive = binding, negative = noninteracting)", "setting": "[3]", "result": "do not interact with the protein"}
    ]},
    {"smiles": "Cc1ccc2c(CC(N)C(=O)O)c[nH]c2c1", "note": "(racemic) [6-CH3 Trp, 6-CH3-D,L-Trp]", "values": [
      {"measurement": "pKd", "setting": "[2]", "result": 4.43},
      {"measurement": "association binding constant (KB)", "setting": "[2]", "result": "2.7±0.2 10^4 Mol^−1"},
      {"measurement": "Interaction with HSA by ITC binding heat effects", "setting": "[2]; PBS, 298 K", "result": "negative binding heats were observed"},
      {"measurement": "ΔH^obs", "setting": "[2]; ITC, 298 K, PBS", "result": "1.9 ± 0.1", "unit": "kcal/mol"},
      {"measurement": "ΔS", "setting": "[2]; ITC, 298 K, PBS", "result": "13.79 cal/(mol K)"},
      {"measurement": "Interaction with HSA by sign of WaterLOGSY signal (positive = binding, negative = noninteracting)", "setting": "[3]", "result": "ligand for HSA"}
    ]},
    {"smiles": "N[C@@H](Cc1c[nH]c2ccccc12)C(=O)O", "note": "[tryptophan]", "values": [
      {"measurement": "Binding site on HSA", "setting": "[4]", "result": "binds also on site II of HSA"}
    ]}
  ]
}
